PubChem BioAssay AID256 (DTP/NCI, 2004)
Several values for one entry are separate records, joined by “and”; a condition that tells them apart may be missing. Equal values may be shown once. Toxic doses and inconclusive results are not listed. The calls were made as follows: active = survival T/C of 150% or more; inactive = T/C below 125% in these data.

Test system: CD2F1 mice, L1210 leukemia ip, survival T/C
Assay: NCI In Vivo Anticancer Drug Screen. Data for tumor model L1210 Leukemia (intraperitoneal) in CD2F1 (CDF1) mice
Settings: higher = longer survival
Summary of the method: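 Transplantable tumor in mice; compound-treated vs vehicle-treated groups. Read-out = treated/control ratio of the measured endpoint.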

[1] = endpoint: mean survival time, dose: 100.0 mg/kg/injection, schedule: Q04DX003 (ip), vehicle: saline with Tween-80
[2] = endpoint: mean survival time, dose: 200.0 mg/kg/injection, schedule: Q04DX003 (ip), vehicle: saline with Tween-80
[3] = endpoint: mean survival time, dose: 400.0 mg/kg/injection, schedule: Q04DX003 (ip), vehicle: saline with Tween-80
[4] = endpoint: mean survival time, dose: 100.0 mg/kg/injection, schedule: Q01DX009 (ip), vehicle: saline with Tween-80
[5] = endpoint: mean survival time, dose: 200.0 mg/kg/injection, schedule: Q01DX009 (ip), vehicle: saline with Tween-80
[6] = endpoint: mean survival time, dose: 100.0 mg/kg/injection, schedule: Q01DX009 (ip), vehicle: saline
[7] = endpoint: mean survival time, dose: 200.0 mg/kg/injection, schedule: Q01DX009 (ip), vehicle: saline
[8] = endpoint: mean survival time, dose: 100.0 mg/kg/injection, schedule: Q04DX002 (ip), vehicle: saline
[9] = endpoint: mean survival time, dose: 200.0 mg/kg/injection, schedule: Q04DX002 (ip), vehicle: saline
[10] = endpoint: mean survival time, dose: 400.0 mg/kg/injection, schedule: Q04DX002 (ip), vehicle: saline
[11] = endpoint: mean survival time, dose: 100.0 mg/kg/injection, schedule: Q01DX009 (ip), vehicle: Klucel (hydroxypropylcellulose) (HPC)

Measured: T/C

CCO[C@@H]1c2cc3c(cc2[C@@H](c2cc(OC)c(O)c(OC)c2)[C@H]2C(=O)OC[C@@H]21)OCO3
inactive: endpoint: median survival time, dose: 0.65 mg/kg/injection, schedule: Q01DX009 (ip), vehicle: saline with Tween-80 108 % of control | endpoint: median survival time, dose: 1.25 mg/kg/injection, schedule: Q01DX009 (ip), vehicle: saline with Tween-80 109 % of control | endpoint: median survival time, dose: 2.5 mg/kg/injection, schedule: Q01DX009 (ip), vehicle: saline with Tween-80 106 % of control | endpoint: median survival time, dose: 5.0 mg/kg/injection, schedule: Q01DX009 (ip), vehicle: saline with Tween-80 101 % of control | endpoint: median survival time, dose: 10.0 mg/kg/injection, schedule: Q01DX009 (ip), vehicle: saline with Tween-80 100 % of control and 109 % of control | endpoint: median survival time, dose: 20.0 mg/kg/injection, schedule: Q01DX009 (ip), vehicle: saline with Tween-80 94 % of control | endpoint: median survival time, dose: 40.0 mg/kg/injection, schedule: Q01DX009 (ip), vehicle: saline with Tween-80 97 % of control

COc1cc(OC)c(/C=C/c2cc3c4ccccc4ccc3[n+](C)c2)c(OC)c1
inactive: endpoint: mean survival time, dose: 12.5 mg/kg/injection, schedule: Q01DX001 (ip), vehicle: saline with Tween-80 104 % of control | endpoint: mean survival time, dose: 25.0 mg/kg/injection, schedule: Q01DX001 (ip), vehicle: saline with Tween-80 112 % of control | endpoint: mean survival time, dose: 50.0 mg/kg/injection, schedule: Q01DX001 (ip), vehicle: saline with Tween-80 101 % of control | endpoint: mean survival time, dose: 100.0 mg/kg/injection, schedule: Q01DX001 (ip), vehicle: saline with Tween-80 94 % of control

O=C(Nc1ccccc1Cl)Nc1ccccc1Cl
inactive: endpoint: mean survival time, dose: 100.0 mg/kg/injection, schedule: Q04DX002 (ip), vehicle: saline with Tween-80 90 % of control | endpoint: mean survival time, dose: 200.0 mg/kg/injection, schedule: Q04DX002 (ip), vehicle: saline with Tween-80 94 % of control | endpoint: mean survival time, dose: 400.0 mg/kg/injection, schedule: Q04DX002 (ip), vehicle: saline with Tween-80 94 % of control

CC1CCCCC1C(C)(C#N)Nc1ccccc1 (stereo unspecified)
inactive: [1] 103 % of control | [2] 104 % of control | [3] 97 % of control

Cc1ccc(NS(=O)(=O)c2ccc([N+](=O)[O-])cc2)cc1
inactive: [4] 93 % of control | [5] 98 % of control | endpoint: mean survival time, dose: 400.0 mg/kg/injection, schedule: Q01DX009 (ip), vehicle: saline with Tween-80 105 % of control

C=C1C=C(C)CC(C)(C)C1 (tested in a mixture with another compound)
inactive: [6] 101 % of control | [1] 102 % of control | [7] 101 % of control | [2] 100 % of control | endpoint: mean survival time, dose: 400.0 mg/kg/injection, schedule: Q01DX009 (ip), vehicle: saline 101 % of control | [3] 102 % of control

CC(C)(C)NC(=O)CCC(CC(=O)NC(C)(C)C)C1([N+](=O)[O-])CCCCC1 (stereo unspecified)
inactive: [4] 92 % of control | [5] 86 % of control

CCCOS(=O)(=O)O
inactive: endpoint: mean survival time, dose: 100.0 mg/kg/injection, schedule: Q01DX001 (ip), vehicle: saline 106 % of control | endpoint: mean survival time, dose: 200.0 mg/kg/injection, schedule: Q01DX001 (ip), vehicle: saline 102 % of control | endpoint: mean survival time, dose: 400.0 mg/kg/injection, schedule: Q01DX001 (ip), vehicle: saline 106 % of control

CC(=O)NC1CCCC(C)C1 (stereo unspecified)
inactive: [1] 96 % of control | [2] 96 % of control | [3] 96 % of control

Cn1c(=S)sc2ccccc21
inactive: endpoint: mean survival time, dose: 25.0 mg/kg/injection, schedule: Q04DX003 (ip), vehicle: Klucel (hydroxypropylcellulose) (HPC) 101 % of control | endpoint: mean survival time, dose: 50.0 mg/kg/injection, schedule: Q04DX003 (ip), vehicle: Klucel (hydroxypropylcellulose) (HPC) 109 % of control | [1] 110 % of control

NCC1OC(OC2C(CO)OC(OC3C(O)C(N)CC(N)C3OC3OC(CO)C(O)CC3N)C2O)C(N)C(O)C1OC1OC(CO)C(O)C(O)C1O (stereo unspecified)
inactive: [8] 98 % of control | [9] 92 % of control | [10] 95 % of control

CCC(CC)N=C(N)N
inactive: endpoint: mean survival time, dose: 25.0 mg/kg/injection, schedule: Q01DX009 (ip), vehicle: saline with Tween-80 100 % of control | endpoint: mean survival time, dose: 25.0 mg/kg/injection, schedule: Q04DX003 (ip), vehicle: saline 100 % of control | endpoint: mean survival time, dose: 50.0 mg/kg/injection, schedule: Q01DX009 (ip), vehicle: saline with Tween-80 93 % of control | endpoint: mean survival time, dose: 50.0 mg/kg/injection, schedule: Q04DX003 (ip), vehicle: saline 97 % of control | [4] 98 % of control | endpoint: mean survival time, dose: 100.0 mg/kg/injection, schedule: Q04DX003 (ip), vehicle: saline 94 % of control

COP(=O)(CC1CO1)OC (stereo unspecified)
inactive: endpoint: mean survival time, dose: 50.0 mg/kg/injection, schedule: Q01DX009 (ip), vehicle: saline 103 % of control | [6] 106 % of control | [7] 98 % of control

CN1CCc2c(c3ccccc3c3ccccc23)C1
inactive: endpoint: mean survival time, dose: 3.12 mg/kg/injection, schedule: Q01DX009 (ip), vehicle: Klucel (hydroxypropylcellulose) (HPC) 104 % of control | endpoint: mean survival time, dose: 6.25 mg/kg/injection, schedule: Q01DX009 (ip), vehicle: Klucel (hydroxypropylcellulose) (HPC) 101 % of control | endpoint: mean survival time, dose: 12.5 mg/kg/injection, schedule: Q01DX009 (ip), vehicle: Klucel (hydroxypropylcellulose) (HPC) 97 % of control | endpoint: mean survival time, dose: 25.0 mg/kg/injection, schedule: Q01DX009 (ip), vehicle: Klucel (hydroxypropylcellulose) (HPC) 95 % of control | endpoint: mean survival time, dose: 50.0 mg/kg/injection, schedule: Q01DX009 (ip), vehicle: Klucel (hydroxypropylcellulose) (HPC) 106 % of control | [11] 113 % of control

O=C1Nc2ccccc2C1=O
inactive: endpoint: mean survival time, dose: 100.0 mg/kg/injection, schedule: Q01DX001 (ip), vehicle: Klucel (hydroxypropylcellulose) (HPC) 96 % of control | endpoint: mean survival time, dose: 200.0 mg/kg/injection, schedule: Q01DX001 (ip), vehicle: Klucel (hydroxypropylcellulose) (HPC) 102 % of control | endpoint: mean survival time, dose: 400.0 mg/kg/injection, schedule: Q01DX001 (ip), vehicle: Klucel (hydroxypropylcellulose) (HPC) 101 % of control

NC(N)=N/N=C\c1ccc2ccccc2c1
inactive: endpoint: mean survival time, dose: 25.0 mg/kg/injection, schedule: Q04DX002 (ip), vehicle: saline with Tween-80 97 % of control | endpoint: mean survival time, dose: 50.0 mg/kg/injection, schedule: Q04DX002 (ip), vehicle: saline with Tween-80 101 % of control

NN1CCCCC1
inactive: [8] 103 % of control | [9] 95 % of control

CC(=O)OC1CCC2(C)C3CCC4(C)C(C(C)CCCC(C)C)CCC4C3C3C(=O)OC32C1 (stereo unspecified)
inactive: endpoint: mean survival time, dose: 100.0 mg/kg/injection, schedule: Q01DX001 (ip), vehicle: acetone 97 % of control | endpoint: mean survival time, dose: 100.0 mg/kg/injection, schedule: Q04DX003 (ip), vehicle: acetone 98 % of control | endpoint: mean survival time, dose: 200.0 mg/kg/injection, schedule: Q01DX001 (ip), vehicle: acetone 101 % of control | endpoint: mean survival time, dose: 200.0 mg/kg/injection, schedule: Q04DX003 (ip), vehicle: acetone 93 % of control | endpoint: mean survival time, dose: 400.0 mg/kg/injection, schedule: Q01DX001 (ip), vehicle: acetone 97 % of control | endpoint: mean survival time, dose: 400.0 mg/kg/injection, schedule: Q04DX003 (ip), vehicle: acetone 90 % of control

CCCCCCCCCCC/C=C\C(C#N)C(=O)OCC (stereo unspecified)
inactive: [1] 103 % of control | [2] 108 % of control | [3] 87 % of control

CN(C)c1ccc(/C=C2\CCC/C(=C\c3ccc(N(C)C)cc3)C2=O)cc1
inactive: [11] 95 % of control | endpoint: mean survival time, dose: 200.0 mg/kg/injection, schedule: Q01DX009 (ip), vehicle: Klucel (hydroxypropylcellulose) (HPC) 101 % of control | endpoint: mean survival time, dose: 400.0 mg/kg/injection, schedule: Q01DX009 (ip), vehicle: Klucel (hydroxypropylcellulose) (HPC) 95 % of control

N[C@@H](C[C@H]1CCC(=O)[C@@H]2O[C@H]12)C(=O)O
active: [10] 167 % of control | endpoint: median survival time, dose: 800.0 mg/kg/injection, schedule: Q01DX005 (ip), vehicle: saline 155 % of control
inactive: [8] 117 % of control and 107 % of control | endpoint: median survival time, dose: 50.0 mg/kg/injection, schedule: Q01DX005 (ip), vehicle: saline 113 % of control and 110 % of control | endpoint: median survival time, dose: 100.0 mg/kg/injection, schedule: Q01DX005 (ip), vehicle: saline 122 % of control and 124 % of control | endpoint: median survival time, dose: 144.0 mg/kg/injection, schedule: Q01DX005 (ip), vehicle: saline 110 % of control | endpoint: median survival time, dose: 172.8 mg/kg/injection, schedule: Q01DX005 (ip), vehicle: saline 119 % of control | endpoint: median survival time, dose: 240.0 mg/kg/injection, schedule: Q01DX005 (ip), vehicle: saline 114 % of control | endpoint: median survival time, dose: 288.0 mg/kg/injection, schedule: Q01DX005 (ip), vehicle: saline 121 % of control

O=C(N/N=C/c1ccc2c(c1)CCC2)c1cccc([N+](=O)[O-])c1
inactive: [1] 91 % of control | endpoint: mean survival time, dose: 200.0 mg/kg/injection, schedule: Q01DX001 (ip), vehicle: saline with Tween-80 94 % of control | [2] 94 % of control | endpoint: mean survival time, dose: 400.0 mg/kg/injection, schedule: Q01DX001 (ip), vehicle: saline with Tween-80 101 % of control | [3] 106 % of control

COc1cc(/C=N/NC(=O)c2cccs2)cc(OC)c1OC
inactive: [1] 98 % of control | [2] 93 % of control | [3] 88 % of control
